{"source": "patent EP0745595A1", "about": "“3-(3-Aryloxyphenyl)-1-(substituted methyl)-s-triazine-2,4,6-oxo or thiotrione herbicidal agents” (American Cyanamid Company, priority 1995, dated 1996)", "assay_type_in_all_cases": "in vivo", "key": {"[1]": {"test_system": "SETARIA VIRIDIS, (L) BEAU", "test": "Preemergence herbicidal evaluation, SETVI (Foxtail, Green)", "details": "rated four to five weeks after treatment", "from_the_text": "(§1) Results of herbicide evaluation are expressed on a rating scale (0-9). The scale is based upon a visual observation of plant stand, vigor, malformation, size, chlorosis and overall plant appearance as compared with a control.\n(§2) The preemergence herbicidal activity of the test compounds of the present invention is exemplified by the following tests in which the seeds of a variety of monocotyledonous and dicotyledonous plants are separately mixed with potting soil and planted on top of approximately one inch of soil in separate pint cups. […] The treated cups are then placed on greenhouse benches, watered and cared for in accordance with conventional greenhouse procedures. From four to five weeks after treatment, the tests are terminated and each cup is examined and rated according to the rating system provided in Example 40.\n(§3) The compounds evaluated are reported by compound number given in Example 40."}, "[2]": {"test_system": "SAGITTARIA PYGMAEA, L.", "test": "Preemergence weed control under flooded paddy conditions, SAGPY (Arrowhead (Pygmaea))", "details": "preemergence, 3-4 weeks after treatment", "summary_of_the_method": "(§4)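 Visual 0-9 rating against untreated control, covering stand, vigor, malformation, size and chlorosis, scored three to four weeks post-treatment in a greenhouse. Application was into 1.5-3 cm flood water over silt loam sown at 0.5 cm. The 50/50 v/v aqueous/acetone doses were about 0.5, 0.25, 0.125 and 0.063 kg/ha.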"}, "[3]": {"test_system": "CASSIA OBTUSIFOLIA, L.", "test": "Preemergence herbicidal evaluation, CASOB (Sicklepod)", "details": "rated four to five weeks after treatment", "summary_of_the_method": "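Preemergence herbicidal activity against sicklepod was assessed by planting seed mixed with potting soil atop about one inch of soil in pint cups. After treatment the cups were watered and handled per standard greenhouse practice. Tests ended four to five weeks later, with plant stand, vigor, malformation, size, chlorosis and overall appearance scored 0-9 relative to a control.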"}, "[4]": {"test_system": "ZEA MAYS L.", "test": "Preemergence herbicidal evaluation, ZEAMX (Corn, Field)", "details": "rated four to five weeks after treatment", "summary_of_the_method": "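Preemergence herbicidal activity on field corn: seeds in potting soil were sown atop roughly one inch of soil in separate pint cups, treated, and grown under standard greenhouse care. Four to five weeks post-treatment, stand, vigor, malformation, size, chlorosis and overall appearance were compared with a control and scored 0-9.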"}, "[5]": {"test_system": "ORYZA SATIVA, L. TEBONNET", "test": "Preemergence herbicidal evaluation, ORYSAT (Rice, Tebonnet)", "details": "rated four to five weeks after treatment", "from_the_text": "as §1, §2, §3"}, "[6]": {"test_system": "ORYZA SATIVA, L. TEBONNET", "test": "Rice tolerance to post-transplant applications under flooded paddy conditions, ORYSAT (Rice, Tebonnet)", "details": "post-transplant rice, 3-4 weeks after treatment", "summary_of_the_method": "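Rated on a visual 0–9 scale against untreated plants 3–4 weeks after application, rice (cv. Tebonnet) tolerance was tested by applying compounds (approx. 0.5–0.063 kg/ha, acetone/water 50/50) to flooded soil three days post-transplant, water kept 1.5–3 cm deep.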"}, "[7]": {"test_system": "GLYCINE MAX(L) MERR. CV. WILLIAMS", "test": "Preemergence herbicidal evaluation, GLXMAW (Soybean, Williams)", "details": "rated four to five weeks after treatment", "summary_of_the_method": "(§5)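 Seeds sown in potting soil cups, then sprayed preemergence with aqueous acetone compound solution at about 0.125 to 0.50 kg per hectare. Greenhouse-grown, rated 4–5 weeks after treatment on a 0–9 visual scale against control.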"}, "[8]": {"test_system": "IPOMOEA SPP.", "test": "Preemergence herbicidal evaluation, IPOSS (Morningglory spp.)", "details": "rated four to five weeks after treatment", "from_the_text": "as §1, §2, §3"}, "[9]": {"test_system": "CYPERUS SEROTINUS, ROTTB.", "test": "Preemergence weed control under flooded paddy conditions, CYPSE (Flatsedge)", "details": "preemergence, 3-4 weeks after treatment", "summary_of_the_method": "as §4"}, "[10]": {"test_system": "ECHINOCHLOA CRUS-GALLI, (L) BEAU", "test": "Preemergence herbicidal evaluation, ECHCG (Barnyardgrass)", "details": "rated four to five weeks after treatment", "summary_of_the_method": "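In this preemergence herbicide test, cups holding seeds of ECHCG sown in potting soil over roughly one inch of soil were treated and then grown under conventional greenhouse care. Tests were ended four to five weeks after treatment, and injury was scored 0-9 from stand, vigor, malformation, size, chlorosis and overall appearance relative to a control.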"}, "[11]": {"test_system": "CHENOPODIUM ALBUM, L.", "test": "Preemergence herbicidal evaluation, CHEAL (Lambsquarters, Common)", "details": "rated four to five weeks after treatment", "summary_of_the_method": "as §5"}, "[12]": {"test_system": "ECHINOCHLOA ORYZOIDES (ARD.)FRITSCH", "test": "Preemergence weed control under flooded paddy conditions, ECHORC (Watergrass (Calif.))", "details": "preemergence, 3-4 weeks after treatment", "summary_of_the_method": "as §4"}}, "data": [{"smiles": "COC(=O)Cn1c(=O)[nH]c(=O)n(-c2cc(Oc3ccc(Cl)cc3Cl)ccc2[N+](=O)[O-])c1=O", "note": "[Compound 14, Methyl 3-[5-(2,4-dichlorophenoxy)-2-nitrophenyl]tetrahydro-2,4,6-trioxo-s-triazine-1(2H)-acetate]", "values": [{"measurement": "SETVI herbicidal rating", "setting": "[1]; Rate 0.125 kg/ha", "result": 0.0}, {"measurement": "SETVI herbicidal rating", "setting": "[1]; Rate 0.250 kg/ha", "result": 0.0}, {"measurement": "SETVI herbicidal rating", "setting": "[1]; Rate 0.500 kg/ha", "result": 0.0}, {"measurement": "Herbicidal effect rating, SAGPY", "setting": "[2]; 0.063 kg/ha", "result": 0.0}, {"measurement": "Herbicidal effect rating, SAGPY", "setting": "[2]; 0.125 kg/ha", "result": 0.0}, {"measurement": "Herbicidal effect rating, SAGPY", "setting": "[2]; 0.250 kg/ha", "result": 0.0}, {"measurement": "Herbicidal effect rating, SAGPY", "setting": "[2]; 0.500 kg/ha", "result": 0.0}, {"measurement": "CASOB herbicidal rating", "setting": "[3]; Rate 0.125 kg/ha", "result": 0.0}, {"measurement": "CASOB herbicidal rating", "setting": "[3]; Rate 0.250 kg/ha", "result": 0.0}, {"measurement": "CASOB herbicidal rating", "setting": "[3]; Rate 0.500 kg/ha", "result": 0.0}, {"measurement": "ZEAMX herbicidal rating", "setting": "[4]; Rate 0.125 kg/ha", "result": 0.0}, {"measurement": "ZEAMX herbicidal rating", "setting": "[4]; Rate 0.250 kg/ha", "result": 0.0}, {"measurement": "ZEAMX herbicidal rating", "setting": "[4]; Rate 0.500 kg/ha", "result": 0.0}, {"measurement": "ORYSAT herbicidal rating", "setting": "[5]; Rate 0.125 kg/ha", "result": 1.0}, {"measurement": "ORYSAT herbicidal rating", "setting": "[5]; Rate 0.250 kg/ha", "result": 1.0}, {"measurement": "ORYSAT herbicidal rating", "setting": "[5]; Rate 0.500 kg/ha", "result": 1.0}, {"measurement": "Herbicidal effect rating, ORYSAT", "setting": "[6]; 0.063 kg/ha", "result": 0.0}, {"measurement": "Herbicidal effect rating, ORYSAT", "setting": "[6]; 0.125 kg/ha", "result": 0.0}, {"measurement": "Herbicidal effect rating, ORYSAT", "setting": "[6]; 0.250 kg/ha", "result": 0.0}, {"measurement": "Herbicidal effect rating, ORYSAT", "setting": "[6]; 0.500 kg/ha", "result": 0.0}, {"measurement": "GLXMAW herbicidal rating", "setting": "[7]; Rate 0.125 kg/ha", "result": 0.0}, {"measurement": "GLXMAW herbicidal rating", "setting": "[7]; Rate 0.250 kg/ha", "result": 0.0}, {"measurement": "GLXMAW herbicidal rating", "setting": "[7]; Rate 0.500 kg/ha", "result": 0.0}, {"measurement": "IPOSS herbicidal rating", "setting": "[8]; Rate 0.125 kg/ha", "result": 0.0}, {"measurement": "IPOSS herbicidal rating", "setting": "[8]; Rate 0.250 kg/ha", "result": 0.0}, {"measurement": "IPOSS herbicidal rating", "setting": "[8]; Rate 0.500 kg/ha", "result": 0.0}, {"measurement": "Herbicidal effect rating, CYPSE", "setting": "[9]; 0.063 kg/ha", "result": 0.0}, {"measurement": "Herbicidal effect rating, CYPSE", "setting": "[9]; 0.125 kg/ha", "result": 0.0}, {"measurement": "Herbicidal effect rating, CYPSE", "setting": "[9]; 0.250 kg/ha", "result": 0.0}, {"measurement": "Herbicidal effect rating, CYPSE", "setting": "[9]; 0.500 kg/ha", "result": 0.0}, {"measurement": "ECHCG herbicidal rating", "setting": "[10]; Rate 0.125 kg/ha", "result": 0.0}, {"measurement": "ECHCG herbicidal rating", "setting": "[10]; Rate 0.250 kg/ha", "result": 0.0}, {"measurement": "ECHCG herbicidal rating", "setting": "[10]; Rate 0.500 kg/ha", "result": 0.0}, {"measurement": "CHEAL herbicidal rating", "setting": "[11]; Rate 0.125 kg/ha", "result": 9.0}, {"measurement": "CHEAL herbicidal rating", "setting": "[11]; Rate 0.250 kg/ha", "result": 9.0}, {"measurement": "CHEAL herbicidal rating", "setting": "[11]; Rate 0.500 kg/ha", "result": 9.0}, {"measurement": "Herbicidal effect rating, ECHORC", "setting": "[12]; 0.063 kg/ha", "result": 0.0}, {"measurement": "Herbicidal effect rating, ECHORC", "setting": "[12]; 0.125 kg/ha", "result": 0.0}, {"measurement": "Herbicidal effect rating, ECHORC", "setting": "[12]; 0.250 kg/ha", "result": 0.0}, {"measurement": "Herbicidal effect rating, ECHORC", "setting": "[12]; 0.500 kg/ha", "result": 0.0}]}]}
